According to the supplement of paper PMC4862054:

Legend:
Conditions in all cases: incubation time: 72 h
[1] = test system: MDA-MB-436; assay: normalised viability (% of control), CellTiter-Blue; higher = more viable cells (about 100 = DMSO control)
Procedure, shortened: (§1)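 The reported quantity is normalised viability at a single listed concentration of the series. Compound in 5 µl medium was pre-dispensed into 384-well plates and 20 µl of breast cancer cell suspension was added for 72 h. A 2 h, 37 °C CellTiter-Blue step (2.5 µl) preceded fluorescence reading at 560/590 nm, and plates were normalised to vehicle (100) and a positive kill control (0).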

[2] = test system: MDA-MB-468; assay: as above
Procedure, shortened: as §1

[3] = test system: CAL-148; assay: as above
Procedure, shortened: as §1

[4] = test system: CAL-120; assay: as above
Procedure, shortened: as §1

[5] = test system: MDA-MB-231; assay: as above
Procedure, shortened: as §1

[6] = test system: BT-549; assay: as above
Procedure, shortened: as §1

[7] = test system: HCC1599; assay: as above
Procedure, shortened: as §1

[8] = test system: CAL-51; assay: as above
Procedure, shortened: as §1

[9] = test system: BT-474; assay: as above
Procedure, shortened: as §1

[10] = test system: HDQ-P1; assay: as above
Procedure, shortened: as §1

[11] = test system: Hs578T; assay: as above
Procedure, shortened: as §1

[12] = test system: HCC1937; assay: as above
Procedure, shortened: as §1

[13] = test system: CAL-85-1; assay: as above
Procedure, shortened: as §1

[14] = test system: MDA-MB-453; assay: as above
Procedure, shortened: as §1

[15] = test system: HCC1143; assay: as above
Procedure, shortened: as §1

[16] = test system: MFM-223; assay: as above
Procedure, shortened: as §1

[17] = test system: DU-4475; assay: as above
Procedure, shortened: as §1

[18] = test system: SK-BR-3; assay: as above
Procedure, shortened: as §1

[19] = test system: CAL-51; assay: drug sensitivity score (DSS), CellTiter-Glo (DSS (AUC-based score)); higher = stronger drug effect (viability inhibition or cytotoxicity); extreme values may be limits of the assay
Procedure, shortened: (§2)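 Plates with 384 wells held compound at 5 concentrations in 10-fold steps over a 10,000-fold range specific to each compound. Breast cancer cell lines were added in 20 µl suspension and incubated 72 h, then read for CellTox Green and CellTiter-Glo signals, with each plate normalised to 0.1 % DMSO and a positive kill control. The drug sensitivity score is based on the area under the fitted dose-response curve.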

[20] = test system: HDQ-P1; assay: as above
Procedure, shortened: as §2

[21] = test system: MDA-MB-453; assay: as above
Procedure, shortened: as §2

[22] = test system: SK-BR-3; assay: as above
Procedure, shortened: as §2

[23] = test system: MDA-MB-468; assay: normalised viability (% of control), CellTiter-Blue; higher = more viable cells (about 100 = DMSO control); remark: listed apart in the source
Procedure, shortened: as §1

[24] = test system: CAL-120; assay: as above; remark: listed apart in the source
Procedure, shortened: as §1

[25] = test system: MDA-MB-231; assay: as above; remark: listed apart in the source
Procedure, shortened: as §1

[26] = test system: CAL-51; assay: as above; remark: listed apart in the source
Procedure, shortened: as §1

[27] = test system: Hs578T; assay: as above; remark: listed apart in the source
Procedure, shortened: as §1

[28] = test system: HCC1937; assay: as above; remark: listed apart in the source
Procedure, shortened: as §1

[29] = test system: CAL-85-1; assay: as above; remark: listed apart in the source
Procedure, shortened: as §1

[30] = test system: MFM-223; assay: as above; remark: listed apart in the source
Procedure, shortened: as §1

[31] = test system: DU-4475; assay: as above; remark: listed apart in the source
Procedure, shortened: as §1

CC[C@]1(O)C[C@H]2CN(CCc3c([nH]c4ccccc34)[C@@](C(=O)OC)(c3cc4c(cc3OC)N(C=O)[C@H]3[C@@](O)(C(=O)OC)[C@H](OC(C)=O)[C@]5(CC)C=CCN6CC[C@]43[C@@H]65)C2)C1 [Vincristine]
Conditions | normalised viability [%]
[1], 100 nM | 35.4
[1], 1000 nM | 39.5
[2], 100 nM | 33.4
[2], 1000 nM | 33.2
[3], 3 nM | 88.5
[3], 30 nM | 23.2
[4], 100 nM | 19.3
[4], 1000 nM | 19.2
[5], 100 nM | 15.5
[5], 1000 nM | 14.3
[6], 100 nM | 22.3
[6], 1000 nM | 16.2
[7], 100 nM | 59.3
[7], 1000 nM | 48
[8], 3 nM | 99
[8], 30 nM | 72.1
[9], 100 nM | 52
[9], 1000 nM | 50.6
[10], 3 nM | 91.3
[10], 30 nM | 58.7
[11], 100 nM | 17.7
[11], 1000 nM | 16.8
[12], 100 nM | 13.8
[12], 1000 nM | 15.1
[13], 3 nM | 89.9
[13], 30 nM | 33
[14], 3 nM | 92.1
[14], 30 nM | 22.6
[15], 100 nM | 38.8
[15], 1000 nM | 35.8
[16], 100 nM | 40.2
[16], 1000 nM | 28.1
[17], 3 nM | 94.7
[17], 30 nM | 48.9
[18], 100 nM | 17.1
[18], 1000 nM | 17.2
[23], 10 nM | 50.6
[23], 100 nM | 32.1
[24], 10 nM | 22.9
[24], 100 nM | 20
[25], 10 nM | 29.5
[25], 100 nM | 16.1
[26], 1 nM | 108
[26], 10 nM | 87.8
[27], 10 nM | 16.6
[27], 100 nM | 19.3
[28], 10 nM | 33.6
[28], 100 nM | 17.8
[29], 1 nM | 96.5
[29], 10 nM | 61.1
[30], 10 nM | 59.8
[30], 100 nM | 39.5
[31], 1 nM | 102
[31], 10 nM | 78.8

Conditions | drug sensitivity score
[19] | 11.7
[20] | 7.83
[21] | 10.5
[22] | 27.7
